{"source": "patent US20190269721A1", "about": "“METHODS AND COMPOSITIONS FOR DEGRADING CALCIUM PHOSPHATE AND FOR TREATING CALCIFICATION DISORDERS” (MERZ NORTH AMERICA, INC., priority 2016, published 2019)", "key": {"[1]": {"details": "background statement; cited from earlier work"}, "[2]": {"experiment": "Degradation of Radiesse calcium hydroxyapatite filler injected into porcine samples (histology of punch biopsy)", "details": "for dissolution of calcium hydroxyapatite in the samples: 24 hours after treatment, histology", "procedure": "In a prospective, single-center clinical trial, 12 porcine samples (pieces of fresh pork shoulder) were injected with Radiesse®, with volumes ranging from 0.4 to 0.8 mL.\nThe samples were then randomized to three treatment groups: topical sodium metabisulfite (25% (w/v) SMB, formulated in petrolatum jelly: about 1-2 grams SMB applied topically to each site on the skin, 25% (w/v) sodium metabisulfite in 120 ml gel) application with occlusion, intralesional injection of about 0.2 mL of sodium thiosulfate solution (STS, concentration 12.5 g/50 mL, i.e., 0.25 g/mL or 25% (w/v)), or both. The volume ratio of Radiesse:STS solution ranged from 2:1 to 4:1. In the control group, samples were not treated after the Radiesse® injection.\n(§1) Twenty-four hours after treatment, a 4-mm punch biopsy was obtained and processed for histology to evaluate the presence, absence, or degradation of calcium hydroxyapatite (FIGS. 1A-1D). A blinded, board-certified dermatopathologist read the samples and determined the amount of calcium present in each sample."}, "[3]": {"experiment": "Degradation of Radiesse calcium hydroxyapatite filler injected into human skin samples (histology of punch biopsy)", "details": "for dissolution of calcium hydroxyapatite in the samples: 24 hours after treatment, histology", "procedure": "Human skin samples (two living skin samples taken from living tissue in each group) were injected with 0.4 mL Radiesse®.\nThe samples were then randomized to three treatment groups: topical sodium metabisulfite (25% (w/v) SMB, formulated in petrolatum jelly, about 1-2 grams SMB applied topically to each site on the skin) application with occlusion, intralesional injection of about 0.4-0.8 mL sodium thiosulfate solution (STS, concentration 12.5 g/50 mL i.e., 0.25 g/mL), or both. In the control group, samples were not treated after the Radiesse® injection.\nas §1, with “1E-1F).” for “1A-1D).”"}, "[4]": {"procedure": "(§2) At visit 1, deep CaHA nodules were injected using a 32-gauge half inch needle with STS (STS, concentration 12.5 g/50 mL, i.e., 0.25 g/mL; 2 injections; 0.3 mL total). At visit 2 (about 3-4 weeks after visit 1), the patient received subsequent injections using a 32-gauge half inch needle on a luer lock syringe of STS (0.3 mL total) to superficial CaHA nodules."}, "[5]": {"details": "1-2 h post-STS injection", "procedure": "In the prospective histology study, 3 patients received Radiesse® injections (12-20 injections/patient) followed by intralesional STS injection (STS, concentration 12.5 g/50 mL, i.e., 0.25 g/mL) in the abdomen/arm prior to abdominoplasty/brachioplasty. Patients received various Radiesse:STS solution volume ratios ranging from 1:1 to 1:2.5, including patient 1: 0.5 mL CaHA and 0.5 mL STS per site (volume ratio of CaHA:STS is 1:1); patient 2: 0.2 mL CaHA and 0.5 mL STS per site (volume ratio of CaHA:STS is 1:2.5); patient 3: 0.15 mL CaHA and 0.3 mL STS per site (volume ratio of CaHA:STS is 1:2). Tissue was harvested about 1-2 h after STS injection, and a 4-mm punch biopsy was assessed for the presence of CaHA (using hematoxylin-eosin sections).\nas §2"}, "[6]": {"procedure": "A filler composition comprising CaHA and HA (hyaluronic acid) was used in a subject. 0.4 ml of CaHA was mixed with 0.4 ml of a highly cohesive HA filler and injected into the volar surface of a human forearm. 0.4 ml of intralesional (IL) STS was injected intralesionally into the treated area. 4 hours after treatment, a 5-mm punch biopsy was obtained. H &E was used to evaluate the presence, absence, or degradation of calcium hydroxyapatite and hyaluronic acid. A blinded, board-certified dermatopathologist read the samples and determined the amount of calcium present in each sample.", "remark": "listed apart in the source"}, "[7]": {"details": "over the next 4 days or so after visit 1"}}, "note": "Like-named read-outs stand apart in the source and are kept apart here.", "data": [{"compound": "O=C(O)CN(CCN(CC(=O)O)CC(=O)O)CC(=O)O", "note": "[EDTA, ethylenediaminetetraacetic acid]", "values": [{"measurement": "ability to dissolve / reduce calcium hydroxyapatite", "setting": "[1]", "value": "unsuccessful"}]}, {"compound": "O=S([O-])S(=O)(=O)[O-].[Na+].[Na+]", "note": "[SMB, sodium metabisulfite]", "values": [{"measurement": "% of calcium hydroxyapatite degraded 24 hrs after treatment", "setting": "[2]", "value": "~50", "unit": "%"}, {"measurement": "dissolution of calcium hydroxyapatite in the samples", "setting": "[2]; porcine samples", "value": "reduced, but did not entirely clear"}, {"measurement": "effects on collagen or surrounding structures", "setting": "[3]", "value": "no apparent deleterious effects"}, {"measurement": "dissolution of calcium hydroxyapatite in the samples", "setting": "[3]; human skin samples", "value": "reduced, but did not entirely clear"}]}, {"compound": "O=S([O-])([O-])=S.[Na+].[Na+]", "note": "[STS, sodium thiosulfate]", "values": [{"measurement": "time until burning sensation resolved", "setting": "[4]; after immediate ice application", "value": "≤ 1", "unit": "min"}, {"measurement": "burning sensation upon injection, 10-point pain scale", "setting": "[4]; both visits", "value": "5-6"}, {"measurement": "erythema", "setting": "[4]; [7]", "value": "concomitant reduction in erythema"}, {"measurement": "nodule sizes (patient reported)", "setting": "[4]; [7]", "value": "progressive reduction in nodule sizes"}, {"measurement": "effect on deep nodules", "setting": "[4]; visit 1, first STS injection, 0.3 mL total, 0.25 g/mL", "value": "immediate softening"}, {"measurement": "time until superficial nodules softened and became semi-fluctuant", "setting": "[4]; visit 2, STS 0.3 mL total", "value": "1 to 2", "unit": "min"}, {"measurement": "CaHA dissolution in histologic analyses", "setting": "[5]; all human tissue samples, CaHA:STS volume ratio 1:1 to 1:2.5", "value": "markedly dissolved"}, {"measurement": "CaHA decrease", "setting": "[5]; human tissue samples", "value": "no less than 70%"}, {"measurement": "% of calcium hydroxyapatite degraded 24 hrs after treatment", "setting": "[2]; porcine samples, 0.4-0.8 mL Radiesse, STS 25% (w/v) about 0.2 mL intralesional, SMB 25% (w/v) topical with occlusion, 4-mm punch biopsy", "value": 100, "unit": "%"}, {"measurement": "dissolution of calcium hydroxyapatite in the samples", "setting": "[2]; porcine samples", "value": "completely dissolved"}, {"measurement": "% of calcium hydroxyapatite degraded 24 hrs after treatment", "setting": "[3]; human skin samples, 0.4 mL Radiesse, STS 0.25 g/mL about 0.4-0.8 mL intralesional, SMB 25% (w/v) topical with occlusion, 4-mm punch biopsy", "value": 100, "unit": "%"}, {"measurement": "dissolution of calcium hydroxyapatite in the samples", "setting": "[3]; human skin samples", "value": "completely dissolved"}, {"measurement": "effects on collagen or surrounding structures", "setting": "[3]; human tissue, intralesional STS and/or topical SMB", "value": "no apparent deleterious effects"}, {"measurement": "reduction of the amount of calcium phosphate tissue filler", "setting": "[6]; about 24 hours after administration", "value": "about 100%"}, {"measurement": "effects on collagen or surrounding structures", "setting": "[6]; human tissue, intralesional STS", "value": "no apparent deleterious effects"}, {"measurement": "dissolution of CaHA in a mixture of CaHA and HA", "setting": "[6]; reduced time period of 4 hours", "value": "completely dissolve"}, {"measurement": "dissolution of calcium hydroxyapatite in the sample", "setting": "[6]; twenty-four hours after intralesional STS injection, 0.4 ml STS, 0.4 ml CaHA + 0.4 ml HA", "value": "completely dissolved"}]}, {"compound": "hyaluronidase", "values": [{"measurement": "ability to dissolve / reduce calcium hydroxyapatite", "setting": "[1]", "value": "cannot effectively dissolve"}]}]}
